pIC50: −log10 of the molar value.
Experiments:
[1] = molecular target: Protein arginine N-methyltransferase 6 (Homo sapiens, UniProt Q96LA8); test: Inhibition of PRMT6 (unknown origin)
[2] = molecular target: T1, Protein arginine N-methyltransferase 1 (Homo sapiens, UniProt Q99873); test: Inhibition of PRMT1 (unknown origin) by TR-FRET analysis
[3] = molecular target: T1, Protein arginine N-methyltransferase 1; test: Inhibition of PRMT1 (unknown origin)
[4] = molecular target: T2, Histone-arginine methyltransferase CARM1 (Homo sapiens, UniProt Q86X55); test: Inhibition PRMT4 (unknown origin)
T2 sequence (Q86X55 whole entry): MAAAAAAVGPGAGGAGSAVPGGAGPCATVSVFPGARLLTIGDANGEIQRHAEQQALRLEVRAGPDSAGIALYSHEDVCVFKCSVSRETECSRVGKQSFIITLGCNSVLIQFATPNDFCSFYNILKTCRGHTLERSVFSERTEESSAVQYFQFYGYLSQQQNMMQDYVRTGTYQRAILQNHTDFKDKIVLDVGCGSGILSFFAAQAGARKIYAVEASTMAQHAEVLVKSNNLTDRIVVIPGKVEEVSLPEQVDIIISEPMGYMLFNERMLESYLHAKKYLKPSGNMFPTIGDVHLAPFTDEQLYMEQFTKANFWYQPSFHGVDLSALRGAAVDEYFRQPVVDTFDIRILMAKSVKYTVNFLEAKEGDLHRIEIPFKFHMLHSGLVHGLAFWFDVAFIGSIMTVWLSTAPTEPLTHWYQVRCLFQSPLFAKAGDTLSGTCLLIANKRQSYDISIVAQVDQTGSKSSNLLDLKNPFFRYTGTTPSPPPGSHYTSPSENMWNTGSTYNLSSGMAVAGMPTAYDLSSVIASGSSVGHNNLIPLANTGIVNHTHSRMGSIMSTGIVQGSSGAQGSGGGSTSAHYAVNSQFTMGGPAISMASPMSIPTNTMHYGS

[5] = molecular target: Protein arginine N-methyltransferase 8 (Homo sapiens, UniProt Q9NR22); test: Inhibition of PRMT8 (unknown origin)
Protein arginine N-methyltransferase 8, sequence (Q9NR22 whole entry): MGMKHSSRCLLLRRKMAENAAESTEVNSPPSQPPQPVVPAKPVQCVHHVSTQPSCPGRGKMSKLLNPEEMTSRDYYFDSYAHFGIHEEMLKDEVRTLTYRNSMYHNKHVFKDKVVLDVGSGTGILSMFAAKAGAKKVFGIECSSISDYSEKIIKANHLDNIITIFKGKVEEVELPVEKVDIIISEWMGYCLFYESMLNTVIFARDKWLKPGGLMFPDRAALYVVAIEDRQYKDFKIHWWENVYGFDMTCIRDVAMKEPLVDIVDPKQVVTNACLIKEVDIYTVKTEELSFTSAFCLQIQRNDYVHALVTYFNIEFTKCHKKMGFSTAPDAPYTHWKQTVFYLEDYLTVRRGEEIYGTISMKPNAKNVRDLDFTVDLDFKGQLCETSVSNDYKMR

T1 sequence (Q99873 whole entry): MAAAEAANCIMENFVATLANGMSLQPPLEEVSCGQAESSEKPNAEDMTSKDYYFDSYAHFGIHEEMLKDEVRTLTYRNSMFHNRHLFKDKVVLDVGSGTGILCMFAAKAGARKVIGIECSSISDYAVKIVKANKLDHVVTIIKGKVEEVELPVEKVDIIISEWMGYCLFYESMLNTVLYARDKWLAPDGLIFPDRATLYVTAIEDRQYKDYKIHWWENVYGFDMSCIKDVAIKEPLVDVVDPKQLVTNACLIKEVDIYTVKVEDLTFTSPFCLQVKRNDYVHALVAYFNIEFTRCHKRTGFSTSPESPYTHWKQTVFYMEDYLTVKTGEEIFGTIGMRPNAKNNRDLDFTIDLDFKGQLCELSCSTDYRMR
Protein arginine N-methyltransferase 6, sequence (Q96LA8 whole entry): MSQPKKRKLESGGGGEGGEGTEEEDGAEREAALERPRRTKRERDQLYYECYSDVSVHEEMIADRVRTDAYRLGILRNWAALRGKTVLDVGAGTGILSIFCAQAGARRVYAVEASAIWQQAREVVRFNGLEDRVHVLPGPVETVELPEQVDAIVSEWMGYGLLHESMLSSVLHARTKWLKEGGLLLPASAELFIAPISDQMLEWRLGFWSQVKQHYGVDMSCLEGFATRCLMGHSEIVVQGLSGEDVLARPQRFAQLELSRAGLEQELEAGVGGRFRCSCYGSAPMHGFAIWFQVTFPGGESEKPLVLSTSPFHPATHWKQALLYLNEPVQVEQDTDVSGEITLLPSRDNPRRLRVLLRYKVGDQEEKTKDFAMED

Molecule `C=CC(C)(C)c1cc(/C=C/C(=O)c2ccc(O)cc2)c(OC)cc1O` [LICOAGROCHACONE A] has a pIC50 [1] of 4.65.

Molecule `CNCCN(C)Cc1ccccc1Sc1ccccc1Cl` has a pIC50 [2] of 8.28.

For `Cc1cc(C)cc([C@@H]2c3cc(C)ccc3NC(=O)CN2C(=O)c2ccc(Br)s2)c1`, the pIC50 [3] was less than 5.00, the pIC50 [4] was less than 5.00 and the pIC50 [5] was less than 5.00.
